Starred links: 1 amine or outer side, 2 acyl side, 3 side chain; linkers in the order of their positions; H or OH if unused. Positions of bridges follow the written chain, without caps; N, C: chain ends. Non-standard residues stand in square brackets, D forms with d. Residues, ends and D or L forms follow the SMILES beside them. X1 = CC(C)CCCCCCCCC[C@H](CC(=O)[*:1])O[*:2]
What was measured:
C. albicans [1] = conditions: reported value; cited from earlier work
C. albicans [2] = assay: Antifungal activity of the formula, disk diffusion method; assay type: cell-based; conditions: Candida albicans, 48 h, read-out: diameter inhibition zones
Protocol: The antifungal activity of the bacillus (10^8/ml) in the formula was determined using the disk diffusion method and was compared to that of empty formulation (without bacillus) and of ketoconazole 2% w/v in ethylene glycol (FIG. 11). A lawn of C. albicans (100 μl of 10^7 cells/ml) was spread on yeast extract-peptone-dextrose (YPD) agar petri dishes and tested solutions (10 μl ) were loaded on paper filter disks (6 mm in diameter) placed at the center of each dish and incubated at 37° C. for 48 h.

Structure (SMILES) | synergistic anti-fungal MIC (C. albicans [1]) [mg/L] | zone of inhibition at 2 % strength (C. albicans [2]) [mm]
CC(C)CCCCCCCCC[C@@H]1CC(=O)N[C@@H](CCC(=O)O)C(=O)N[C@@H](CC(C)C)C(=O)N[C@H](CC(C)C)C(=O)N[C@@H](C(C)C)C(=O)N[C@@H](CC(=O)O)C(=O)N[C@H](CC(C)C)C(=O)N[C@@H](CC(C)C)C(=O)O1 [Surfactin C15] (EL[dL]VD[dL]L; linker N-C via X1) | 6.25 | –
CC(=O)N1CCN(c2ccc(OCC3COC(Cn4ccnc4)(c4ccc(Cl)cc4Cl)O3)cc2)CC1 (centres unmarked) [ketoconazole] | – | 14
